Measured values as given in patent US11325955B2, “Stabilized anti-microbial peptides for the treatment of antibiotic-resistant bacterial infections” (priority 2017, dated 2022).
≈ marks a conversion by molar mass, not a printed value. Where two headings read alike, the source gives them in different places. Positions of bridges follow the written chain, without caps; N, C: chain ends. Non-standard residues stand in square brackets, D forms with d. Residues, ends and D or L forms follow the SMILES beside them. S5 = C=CCCC[C@](C)(N)C(=O)O; Nle = CCCC[C@H](N)C(=O)O

Key:
A baumannii = assay type: cell-based
Description: (§1) The following microbroth dilution protocol was adapted to determine the minimum inhibitory concentration (MIC) of each peptide. First, Mueller-Hinton broth (MHB) was passed through an anion exchange column to remove polyanionic species and generate refined MHB. […] Briefly, bacterial cells were grown overnight in refined MHB at 37° C. and then diluted and allowed to grow again for several hours. Serial dilutions of peptide stocks in water (10 μl) were prepared using clear round-bottom polypropylene 96-well plates. Then 90 μl of bacteria in refined MHB was added to give a final inoculum of 5×10^5 CFU/ml. The plates were then covered with porous tape to reduce evaporation, and incubated for 20-24 hours at 37° C. The MIC is the minimum peptide concentration at which no visible growth was observed.

B cereus = assay type: cell-based
Description: as §1

E coli = assay type: cell-based
Description: as §1

P aeruginosa = assay type: cell-based
Description: as §1

S aureus = assay type: cell-based
Description: as §1

[1] = test system: primary human renal proximal tubule epithelial cells (pRPTECs)
Description: In one embodiment, pRPTECs are seeded at a density of 10,000 cells per well on 96 well plates and incubated for 48 hours at 37° C. Cells are then treated with different concentrations of the StAMP and incubated for another 24-to-48 hour period. Cell viability is then determined and/or lactate dehydrogenase (LDH) release is measured.
Briefly, pRPTECs in complete growth cell medium were seeded in a 96 well plate at a density of 10,000 cells per well and incubated at 37° C. for 48 hours. Complete medium was then removed and replaced with a toxicity assay medium to which various concentrations of StAMP were added. Cells were then further incubated for 24 to 48 hours after which cell medium was collected and assayed for the presence of Lactate Dehydrogenase (LDH) using a Cytotoxicity Detection Kit (LDH) (Roche).

[2] = test system: human red blood cells (RBCs); test: Hemolytic activity assay; assay type: cell-based; conditions: peptide at 25 μg/ml, 1 hour at 37° C.
Description: For the determination of hemolytic activity, human blood samples were centrifuged to isolate red blood cells (RBCs), which are then washed and suspended in phosphate-buffered saline to yield a 1% (v/v) suspension. The suspension was then added to serial dilutions of peptide stocks in water in clear round-bottom polypropylene 96-well plates and the plates were incubated for 1 hour at 37° C. After incubation, the plates were centrifuged and the supernatant was isolated to determine the amount of hemoglobin released using a spectrophotometer (570 nm), according to the equation: % Hemolysis=(Treated Absorbance−Untreated Control Absorbance)/(1% Triton-X100 Treated Absorbance−Untreated Control Absorbance). The minimum hemolytic concentration (MHC) is the peptide concentration at which there is less than 1% hemoglobin release.

[3] = test system: E. coli clinical isolates that harbor the MCR-1 plasmid; assay type: cell-based
Description: (§2) StAMPs were screened against a panel of MDR clinical samples obtained from the Antimicrobial Resistance Isolate Bank of the Centers for Disease Control and Prevention (Atlanta, Ga.).
as §1
(§3) The first three StAMPs of Table 2 in Example 3 were then tested against 39 clinical isolates of A. baumannii with various degrees of colistin resistance (Table 3, 4).

[4] = test system: Methicillin-resistant S Aureus; assay type: cell-based
Description: as §1
(§4) StAMPs Mag(i+4)2,15(A9K), Pleu(i+4)1,15(A9K) and Pleu(i+4)1,15 were also then tested against 4 clinical isolates of S. aureus of which two were methicillin-susceptible (MSSA) and two were methicillin-resistant (MRSA) (Table 5).

[5] = test system: Methicillin-susceptible S Aureus; assay type: cell-based
Description: as §1, §4

[6] = test system: A. baumannii clinical isolates; assay type: cell-based
Description: as §2, §1, §3

[7] = E. coli CDC Bank# 346, contains MCR-1 plasmid
[8] = E. coli CDC Bank# 349, contains MCR-1 plasmid

Molecule: CC(C)[C@@H]1NC(=O)[C@@](C)(NC(=O)[C@H](C)NC(=O)[C@H](CCCCN)NC(=O)CNC(=O)[C@H](Cc2ccccc2)NC(=O)[C@H](CCCCN)NC(=O)[C@H](CCCCN)NC(=O)[C@H](CCCCN)NC(=O)[C@H](CO)NC(=O)[C@H](Cc2c[nH]cn2)NC(=O)[C@]2(C)CCCC=CCCC[C@](C)(NC(=O)CN)C(=O)NCC(=O)N[C@@H](CCCCN)C(=O)N[C@@H](Cc3ccccc3)C(=O)N2)CCCC=CCCC[C@@](C)(C(=O)N[C@@H](CCCCN)C(=O)N[C@@H](CC(N)=O)C(=O)N[C@@H](CO)C(N)=O)NC(=O)[C@H](CCC(=O)O)NC(=O)CNC1=O [Mag(i+4)1,15(A9K, B21K), GXGKFXHSKKKFGKAXVGEXKNS] (H-G[S5]GKF[S5]HSKKKFGKA[S5]VGE[S5]KNS-NH2; staple 2-6, 16-20)
- MIC A baumannii (A baumannii): 1.6 µg/mL (≈ 0.631 µM)
- MIC B cereus (B cereus): 35.4 µg/mL (≈ 14 µM)
- MIC E coli (E coli): 3.1 µg/mL (≈ 1.22 µM)
- MIC P aeruginosa (P aeruginosa): 12.5 µg/mL (≈ 4.93 µM)
- MIC S aureus (S aureus): >50 µg/mL
- pRPTEC lysis (% LDH release) compared to Mag(i+4)1,15(A9K) ([1]; 90 minute incubation, FIG. 2): markedly reduced lytic activity toward pRPTECs
- pRPTEC lysis (% LDH release), long-term lytic activity ([1]; 48 hours incubation, FIG. 3): lowered long-term lytic activity

Molecule: CC(C)[C@@H]1NC(=O)[C@@](C)(NC(=O)[C@H](C)NC(=O)[C@H](CCCCN)NC(=O)CNC(=O)[C@H](Cc2ccccc2)NC(=O)[C@H](CCCCN)NC(=O)[C@H](CCCCN)NC(=O)[C@H](CCCCN)NC(=O)[C@H](CO)NC(=O)[C@H](Cc2c[nH]cn2)NC(=O)[C@]2(C)CCCC=CCCC[C@](C)(NC(=O)CN)C(=O)NCC(=O)N[C@@H](CCCCN)C(=O)N[C@@H](Cc3ccccc3)C(=O)N2)CCCC=CCCC[C@@](C)(C(=O)N[C@@H](C)C(=O)N[C@@H](CC(N)=O)C(=O)N[C@@H](CO)C(N)=O)NC(=O)[C@H](CCC(=O)O)NC(=O)CNC1=O [Mag(i+4)1,15(A9K, B21A), GXGKFXHSKKKFGKAXVGEXANS] (H-G[S5]GKF[S5]HSKKKFGKA[S5]VGE[S5]ANS-NH2; staple 2-6, 16-20)
- MIC B cereus (B cereus): 50 µg/mL (≈ 20.2 µM)
- MIC E coli (E coli): 6.2 µg/mL (≈ 2.5 µM)
- MIC P aeruginosa (P aeruginosa): 8.8 µg/mL (≈ 3.55 µM)
- MIC S aureus (S aureus): >50 µg/mL
- pRPTEC lysis (% LDH release) relative to Mag(i+4)1,15(A9K) ([1]; 24-hour incubation, FIG. 1): significantly attenuated pRPTEC lysis

Molecule: CCCC[C@H](NC(=O)[C@]1(C)CCCC=CCCC[C@](C)(NC(=O)[C@H](C)NC(=O)[C@H](CCCCN)NC(=O)CNC(=O)[C@H](Cc2ccccc2)NC(=O)[C@H](CCCCN)NC(=O)[C@H](CCCCN)NC(=O)[C@H](CCCCN)NC(=O)[C@H](CO)NC(=O)[C@]2(C)CCCC=CCCC[C@](C)(NC(=O)[C@@H](NC(=O)CN)[C@@H](C)CC)C(=O)N[C@@H](CCCCN)C(=O)N[C@@H](Cc3ccccc3)C(=O)N[C@@H](CC(C)C)C(=O)N2)C(=O)N[C@@H](C(C)C)C(=O)NCC(=O)N[C@@H](CCC(=O)O)C(=O)N1)C(=O)N[C@@H](CC(N)=O)C(=O)N[C@@H](CO)C(N)=O [Mag(i+4)2,15(A9K), GIXKFLXSKKKFGKAXVGEXBNS] (H-GI[S5]KFL[S5]SKKKFGKA[S5]VGE[S5][Nle]NS-NH2; staple 3-7, 16-20)
- % Hemolysis at 25 μg/ml [2]: 17.9%
- Antimicrobial Activity MIC [3, 7]: 2.2 µg/mL
- Antimicrobial Activity MIC [3, 8]: 3.1 µg/mL
- Antimicrobial Activity MIC [4]: 1.6 µg/mL
- Antimicrobial Activity MIC [5]: 1.6 µg/mL

Molecule: CC(C)C[C@H](NC(=O)[C@H](Cc1ccc(O)cc1)NC(=O)[C@H](Cc1c[nH]cn1)NC(=O)[C@@H](NC(=O)[C@H](CC(C)C)NC(=O)[C@]1(C)CCCC=CCCC[C@](C)(NC(=O)[C@H](Cc2c[nH]cn2)NC(=O)[C@H](CCCCN)NC(=O)CNC(=O)[C@@H](NC(=O)[C@H](Cc2c[nH]cn2)NC(=O)[C@H](C)NC(=O)[C@H](CCCCN)NC(=O)[C@H](CCCCN)NC(=O)[C@H](CCCCN)NC(=O)[C@]2(C)CCCC=CCCC[C@](C)(NC(=O)CN)C(=O)NCC(=O)N[C@@H](CO)C(=O)N[C@@H](Cc3ccccc3)C(=O)N2)C(C)C)C(=O)NCC(=O)N[C@@H](CCCCN)C(=O)N[C@@H](C)C(=O)N1)[C@@H](C)O)C(N)=O [Pleu(i+4)1,15(A9K), GXGSFXKKKAHVGKHXGKAXLTHYL] (H-G[S5]GSF[S5]KKKAHVGKH[S5]GKA[S5]LTHYL-NH2; staple 2-6, 16-20)
- % Hemolysis at 25 μg/ml [2]: 16.3%
- Antimicrobial Activity MIC [3, 7]: 1.6 µg/mL
- Antimicrobial Activity MIC [3, 8]: 1.6 µg/mL
- Antimicrobial Activity MIC [4]: 3.1 µg/mL
- Antimicrobial Activity MIC [5]: 3.1 µg/mL

Molecule: Colistin [reference compound]
- Antimicrobial Activity MIC ([6]; A. baumannii CDC Bank# 275): 1 µg/mL
- Antimicrobial Activity MIC ([6]; A. baumannii CDC Bank# 276): 2 µg/mL
- Antimicrobial Activity MIC ([6]; A. baumannii CDC Bank# 277): 1 µg/mL
- Antimicrobial Activity MIC ([6]; A. baumannii CDC Bank# 278): 1 µg/mL
- Antimicrobial Activity MIC ([6]; A. baumannii CDC Bank# 279): 1 µg/mL
- Antimicrobial Activity MIC ([6]; A. baumannii CDC Bank# 280): 1 µg/mL
- Antimicrobial Activity MIC ([6]; A. baumannii CDC Bank# 281): 1 µg/mL
- Antimicrobial Activity MIC ([6]; A. baumannii CDC Bank# 282): 0.5 µg/mL
- Antimicrobial Activity MIC ([6]; A. baumannii CDC Bank# 283): 1 µg/mL
- Antimicrobial Activity MIC ([6]; A. baumannii CDC Bank# 284): 1 µg/mL
- Antimicrobial Activity MIC ([6]; A. baumannii CDC Bank# 285): 1 µg/mL
- Antimicrobial Activity MIC ([6]; A. baumannii CDC Bank# 286): 0.5 µg/mL
- Antimicrobial Activity MIC ([6]; A. baumannii CDC Bank# 287): 1 µg/mL
- Antimicrobial Activity MIC ([6]; A. baumannii CDC Bank# 288): >8 µg/mL
- Antimicrobial Activity MIC ([6]; A. baumannii CDC Bank# 289): 2 µg/mL
- Antimicrobial Activity MIC ([6]; A. baumannii CDC Bank# 290): 1 µg/mL
- Antimicrobial Activity MIC ([6]; A. baumannii CDC Bank# 291): 1 µg/mL
- Antimicrobial Activity MIC ([6]; A. baumannii CDC Bank# 292): 1 µg/mL
- Antimicrobial Activity MIC ([6]; A. baumannii CDC Bank# 293): 0.5 µg/mL
- Antimicrobial Activity MIC ([6]; A. baumannii CDC Bank# 294): 1 µg/mL
- Antimicrobial Activity MIC ([6]; A. baumannii CDC Bank# 295): 1 µg/mL
- Antimicrobial Activity MIC ([6]; A. baumannii CDC Bank# 296): 0.5 µg/mL
- Antimicrobial Activity MIC ([6]; A. baumannii CDC Bank# 297): 1 µg/mL
- Antimicrobial Activity MIC ([6]; A. baumannii CDC Bank# 298): 0.5 µg/mL
- Antimicrobial Activity MIC ([6]; A. baumannii CDC Bank# 299): 2 µg/mL
- Antimicrobial Activity MIC ([6]; A. baumannii CDC Bank# 300): 1 µg/mL
- Antimicrobial Activity MIC ([6]; A. baumannii CDC Bank# 301): 0.5 µg/mL
- Antimicrobial Activity MIC ([6]; A. baumannii CDC Bank# 302): 2 µg/mL
- Antimicrobial Activity MIC ([6]; A. baumannii CDC Bank# 303): >8 µg/mL
- Antimicrobial Activity MIC ([6]; A. baumannii CDC Bank# 304): 4 µg/mL
- Antimicrobial Activity MIC ([6]; A. baumannii CDC Bank# 305): 1 µg/mL
- Antimicrobial Activity MIC ([6]; A. baumannii CDC Bank# 306): 1 µg/mL
- Antimicrobial Activity MIC ([6]; A. baumannii CDC Bank# 307): >8 µg/mL
- Antimicrobial Activity MIC ([6]; A. baumannii CDC Bank# 308): 8 µg/mL
- Antimicrobial Activity MIC ([6]; A. baumannii CDC Bank# 309): 8 µg/mL
- Antimicrobial Activity MIC ([6]; A. baumannii CDC Bank# 310): 8 µg/mL
- Antimicrobial Activity MIC ([6]; A. baumannii CDC Bank# 311): 1 µg/mL
- Antimicrobial Activity MIC ([6]; A. baumannii CDC Bank# 312): 0.5 µg/mL
- Antimicrobial Activity MIC ([6]; A. baumannii CDC Bank# 313): 1 µg/mL
- Antimicrobial Activity MIC [3, 7]: 2.5 µg/mL
- Antimicrobial Activity MIC [3, 8]: 1.2 µg/mL

Molecule: CC(C)C[C@H](NC(=O)[C@H](Cc1ccc(O)cc1)NC(=O)[C@H](Cc1c[nH]cn1)NC(=O)[C@@H](NC(=O)[C@H](CC(C)C)NC(=O)[C@]1(C)CCCC=CCCC[C@](C)(NC(=O)[C@H](Cc2c[nH]cn2)NC(=O)[C@H](CCCCN)NC(=O)CNC(=O)[C@@H](NC(=O)[C@H](Cc2c[nH]cn2)NC(=O)[C@H](C)NC(=O)[C@H](C)NC(=O)[C@H](CCCCN)NC(=O)[C@H](CCCCN)NC(=O)[C@]2(C)CCCC=CCCC[C@](C)(NC(=O)CN)C(=O)NCC(=O)N[C@@H](CO)C(=O)N[C@@H](Cc3ccccc3)C(=O)N2)C(C)C)C(=O)NCC(=O)N[C@@H](CCCCN)C(=O)N[C@@H](C)C(=O)N1)[C@@H](C)O)C(N)=O [Pleu(i+4)1,15, GXGSFXKKAAHVGKHXGKAXLTHYL] (H-G[S5]GSF[S5]KKAAHVGKH[S5]GKA[S5]LTHYL-NH2; staple 2-6, 16-20)
- % Hemolysis at 25 μg/ml [2]: 88.2%
- Antimicrobial Activity MIC [4]: 3.1 µg/mL
- Antimicrobial Activity MIC [5]: 3.1 µg/mL
